From ChEMBL document CHEMBL1944594, “Synthesis, biological evaluation, and docking studies of tetrahydrofuran- cyclopentanone- and cyclopentanol-based ligands acting at adrenergic α₁- and serotonine 5-HT1A receptors” (J Med Chem, 2012) come the findings set out here.

The target of assay [1] is T1, Alpha-1A adrenergic receptor (Rattus norvegicus) (UniProt P43140).
T1 sequence (whole entry): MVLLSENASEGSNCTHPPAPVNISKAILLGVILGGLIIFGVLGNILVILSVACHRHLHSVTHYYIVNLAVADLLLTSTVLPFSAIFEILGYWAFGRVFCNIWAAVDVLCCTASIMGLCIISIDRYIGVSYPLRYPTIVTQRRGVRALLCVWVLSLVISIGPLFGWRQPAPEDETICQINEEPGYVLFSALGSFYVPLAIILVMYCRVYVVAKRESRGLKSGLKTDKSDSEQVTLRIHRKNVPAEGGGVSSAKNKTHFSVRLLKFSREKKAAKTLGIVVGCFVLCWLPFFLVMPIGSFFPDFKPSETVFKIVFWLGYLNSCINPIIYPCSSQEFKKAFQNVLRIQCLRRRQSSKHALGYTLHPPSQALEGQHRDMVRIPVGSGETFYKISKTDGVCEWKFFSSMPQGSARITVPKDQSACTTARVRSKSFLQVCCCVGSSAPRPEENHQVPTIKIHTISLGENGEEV
In words: Antagonist activity at alpha1A adrenoceptor in Wistar rat prostatic vas deferens assessed as inhibition of (-)-noradrenalilne-induced contraction after 30 mins. It counts as functional, tissue-based.

Assay [2] addresses T2, Alpha-1B adrenergic receptor (Rattus norvegicus) (UniProt P15823).
T2 sequence (whole entry): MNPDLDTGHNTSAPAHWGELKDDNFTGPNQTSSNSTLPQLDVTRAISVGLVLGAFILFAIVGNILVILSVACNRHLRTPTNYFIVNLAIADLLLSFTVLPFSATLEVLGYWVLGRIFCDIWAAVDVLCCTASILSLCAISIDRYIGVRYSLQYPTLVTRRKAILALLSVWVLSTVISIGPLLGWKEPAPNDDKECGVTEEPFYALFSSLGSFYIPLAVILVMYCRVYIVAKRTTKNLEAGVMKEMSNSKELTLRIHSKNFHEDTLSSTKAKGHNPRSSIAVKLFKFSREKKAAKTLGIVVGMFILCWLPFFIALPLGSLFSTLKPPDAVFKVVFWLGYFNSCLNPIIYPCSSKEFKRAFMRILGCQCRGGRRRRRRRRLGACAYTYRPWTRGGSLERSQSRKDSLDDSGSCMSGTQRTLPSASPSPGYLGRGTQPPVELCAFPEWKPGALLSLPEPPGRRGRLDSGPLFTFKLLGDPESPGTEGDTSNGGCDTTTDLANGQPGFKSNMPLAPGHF
The assay is described as follows: Antagonist activity at Alpha-1B receptor in Wistar rat spleen assessed as inhibition of (-)-phenylephrine-induced contraction after 30 mins. The class given is functional, tissue-based.

In general, pKb refers to the negative decadic logarithm of the Kb, by convention in mol/L. As to `COc1ccccc1OCCNCC1CCC(c2ccccc2)(c2ccccc2)O1` (stereo not drawn), the pKb came to 7.24 in assay [1] and 6.92 in assay [2].

For the compound `COc1ccccc1OCCNCC1CCC(c2ccccc2)(c2ccccc2)C1=O` (stereo not drawn), the negative-log Kb (pKb) in assay [1] was found to be 6.39; in assay [2] it was 6.92.

Consider `COc1ccccc1OCCNC[C@H]1CCC(c2ccccc2)(c2ccccc2)[C@@H]1O` (relative stereo), for which the pKb in assay [1] was determined as 6.57; in assay [2] it was 7.7.

Take `O[C@@H]1[C@@H](CNCCOc2ccccc2)CCC1(c1ccccc1)c1ccccc1` (relative stereo): the negative logarithm of the Kb (pKb) in assay [1] was 5.43; in assay [2] it was 6.67.

Turning to `COc1ccccc1N1CCN(C[C@H]2CCC(c3ccccc3)(c3ccccc3)[C@H]2O)CC1` (relative stereo), the figures for the pKb in assay [1] and in assay [2] were 5.62 and 7.25, respectively.

On to `COc1ccccc1N1CCN(C[C@H]2CCC(c3ccccc3)(c3ccccc3)[C@@H]2O)CC1`, for which the pKb in assay [1] amounted to 6.39; in assay [2] it was 7.14.

Consider `O=C1C(CNCCOc2ccccc2)CCC1(c1ccccc1)c1ccccc1` (stereo not drawn), for which the pKb in assay [1] was less than 5; in assay [2], 6.95.

On to `COc1ccccc1N1CCN(CC2COC(c3ccccc3)(c3ccccc3)O2)CC1` (stereo not drawn), for which the pKb is 8.24 in assay [1] and 6.69 in assay [2].

As to `O[C@@H]1[C@H](CNCCOc2ccccc2)CCC1(c1ccccc1)c1ccccc1` (relative stereo), the negative-log Kb (pKb) came out at 5.23 in assay [1] and 6.26 in assay [2].
